The text below walks through data of US10947276B2, “Cell penetrating peptides with improved internalization properties” (SORBONNE UNIVERSITE, priority 2016, dated 2021).

Data set [1] in a line: Peptide stability in human serum by MALDI-TOF mass spectrometry. The format is in vitro ADME. The settings on record: for stability (integrity) compared to control Mut3DPT: 37° C., human serum/plasma, 0 to 24 h. As for the experimental part: A) Mut3DPT, Mut4DPT, Mut5DPT, Mut6DPT and Mut7DPT peptides were incubated at 37° C. in human serum for different periods of time and their integrity (percentage of intact peptide) were analyzed by mass spectrometry. Similar results were obtained in two independent experiments.
FIG. 5. Mut3DPT, Tat, Penetratin and R8 were treated and analyzed as above. The stability is referred to the intensity of the peaks.
Mut3DPT, as well as Mut4DPT, Mut5DPT, Mut6DPT and Mut7DPT were incubated at 37° C. in 250 μl human serum for different periods of time. Samples were collected and peptide degradation stopped by freezing. Peptides were extracted from collected samples using the ProteoMiner Protein Enrichment System (Bio-Rad). Peptide integrity (percentage of intact peptide) was analyzed by mass spectrometry using a MALDI-TOF (Brücker Autoflex II) following their standard protocols. Every measurement was performed by triplicate. MS data were analyzed using appropriate software (Clinprot tools, Flex analysis, Brücker).
The inventors have analyzed whether these new generated peptides have enhanced stability in plasma, compared to the control Mut3DPT. The peptides were incubated for different periods of time (from 0 to 24 h) at 37° C. with human plasma and their stability was analyzed by mass spectrometry (MS). […] The synthetic peptides Mut5DPT, Mut6DPT and Mut7DPT are also very stable to proteases degradation, compared to the control peptide Mut3DPT. Taken together, we can conclude that there is no modification of the stability upon 24 h of incubation with human serum.

The subject of a further data set is MDA-MB231 cell line. In words: Toxicity of CPP-NLS peptides by FACS. The conditions noted are these: 25 and 50 μM, 4 h of incubation. In general terms: In flow cytometry, cells or beads pass a laser one at a time.
A further data set has as its system MCF-7, PBMC. In words: Internalization of shuttles by fluorescence microscopy, mass spectrometry and flow cytometry. The data set is classed as cell-based, human. The conditions noted are these: MCF-7 25 μM (microscopy), 100 μM (MS); B cells of PBMC 100 μM 4 h. As for the experimental part:
A) MCF-7 cells were grown on coverslips and incubated 1 h at 37° C. with 25 μM of FITC-labelled peptides. Cells were washed 3 times with PBS, fixed with 4% paraphormaldeyde (PFA) and analyzed by fluorescence microscopy. Quantification of the microscopy images is shown. B) MCF7 were grown as above and incubated for different periods of time at 37° C. with 25 μM of FITC-labelled shuttles. Cells were treated as above and analyzed by fluorescence microscopy.
MCF-7 cells were cultured 4 h with 100 μM of each shuttle. After several washing steps, they were lysed and the extracts centrifuged. The intracellular peptide was detected by MS. Pure peptide was used as a control of molecular weight.
A) B cells were isolated (anti-hCD19-APC antibody) from peripheral blood mononuclear cells (PBMC) of healthy donors (HD) or B) chronic lymphocytic leukemia (CLL) patients. Cells were incubated 4 h with 100 μM of the FITC-labelled shuttles. The mean fluorescence intensity was detected by flow cytometry. Non treated cells were used as control.
Peripheral blood mononuclear cells from healthy (HD) donors or chronic lymphocytic leukaemia patients (CLL) were treated with FITC-labelled peptides and them, cells were harvested and washed twice with PBS to remove the extracellular unbound peptide. FITC fluorescence intensity of internalized peptide was measured by flow cytometry (BD Biosciences) by acquiring 10,000 live cells. B cells were selected with anti hCD19-APC labelled antibody. Experiments were carried out three times in duplicate. Untreated cells were used as control.
For intracellular localization of FITC-labelled peptides, MDA-MB231 or MCF7 cells were seeded in an 8-well Labtek (Thermo Fischer) at a density of 2×10^4 cells/well. Cells were treated with different concentrations of FITC-labelled peptides for different times. Cells were fixed with 4% of formaldehyde for 15 min at room temperature. Samples were washed twice with PBS and mounted in mounting solution containing DAPI. Images were captured with a fluorescence microscopy (Olympus Japan) using 63× magnification objective.
To detect the internalization of the peptides, breast cancer cell line MCF-7 cells were seeded in a 6-well plate at a density of 1×10^6 cells/well in DMEM medium supplemented with 10% FCS. Cells were treated with 100 μM of each shuttle for 4 h at 37° C., then cells were washed once with PBS. Cell pellet was collected by detaching with Trypsin EDTA following several washing step with PBS. Cells were resuspended in lysis buffer (Tris-HCl 50 mM, NaCl 20 mM, pH 8.0, supplemented with protease inhibitors) and lysed with Glass/Teflon potter (Elvehjem homogenizers), then centrifuged for 20 min at 16,000 g at 4° C. The peptides in the supernatant were concentrated with Ziptips (Millpore, ZTC18S096) according to the manufacture's protocol. The internalization of peptide was detected by mass spectrometry (MS) using a MALDI-TOF (Brucker Autoflx II). MS data were analyzed using appropriate software (Clinprot tools, Flex analysis, Brucker).
The inventors incubated the cells (MCF-7, PBMC) with the peptides at different concentrations (respectively 25 μM, and 100 μM) and analyzed the presence of the shuttles into the cells by fluorescence microscopy, mass spectrometry (MS) and flow cytometry.

Data set [2] deals with MDA-MB231 cells. As to the kind of experiment: Intracellular localization of FITC-labelled peptides by fluorescence microscopy. The data set is classed as cell-based, human. The settings on record: 30 μM, 4 h. The procedure: MDA-MB231 cells (3×10^4 cells/ml) were grown on cover slips and incubated 4 h with 30 μM of FITC-labelled peptides. Cells were washed 3 times with PBS, fixed with 4% paraformaldeyde (PFA) and analyzed by fluorescence microscopy. Cells treated with mut7DPT-FITC were used as control.
MDA-MB231 cells (3×10^4 cells/ml) were grown on cover slips and incubated with 30 μM of peptide for different periods of time. Cells were washed 3 times with PBS, fixed with 4% PFA and analyzed by fluorescence microscopy.
MDA-MB231 cells (3×10^4 cells/ml) were incubated in cover slips for 3 h with 15 μM of the FITC-labelled peptides associated to a cargo (TEAD or YAP peptides). Cells were washed 3 times with PBS, fixed with 4% PFA and analyzed by fluorescence microscopy.
For intracellular localization of FITC-labelled peptides, MDA-MB231 was seeded in an 8-well Labtek (Thermo Fischer) at a density of 3×10^4 cells/well. Cells were treated with different concentrations of FITC-labelled peptides for different times. Cells were fixed or not with 4% of formaldehyde for 15 min at room temperature. Samples were washed twice with PBS and mounted in mounting solution containing DAPI. Images were captured with a fluorescence microscopy (Olympus Japan) using 63× magnification objective.

A further data set relates to MCF-7 cells. In words: Intracellular detection of FITC-labelled peptides by FACS. The data set is classed as cell-based, human. The settings on record: MCF-7 (similar in Jurkat); for kinetic of internalization compared to control peptide Mut3DPT: 50 μM, different periods of time. The procedure:
MCF-7 or Jurkat cell lines were cultured in the presence or in the absence of Mut3DPT (Panel A), Mut4DPT (Panel B), Mut5DPT (Panel C), Mut6DPT (Panel D) or Mut7DPT (Panel E) at 50 μM for different periods of time. The intensity of the FITC fluorescence due to the shuttle internalization was measured by FACS. The results presented in the figure correspond to MCF-7 cells. Similar results were obtained using Jurkat cell line.
MCF-7 or Jurkat cell lines were cultured in the presence or in the absence of Mut3DPT (Panel A), Mut4DPT (Panel B), Mut5DPT (Panel C), Mut6DPT (Panel D) or Mut7DPT (Panel E) at different concentrations for 4 h. The intensity of the FITC fluorescence due to the shuttle internalization was measured by FACS. The results presented in the figure correspond to MCF-7 cells. Similar results were obtained using Jurkat cell line.
Jurkat and MCF-7 cells were incubated with different concentrations of FITC-labeled peptides, then washed and analyzed by FACS in order to detect the intensity of fluorescence into the cells. Similarly, Jurkat and MCF-7 cells were incubated with a given peptide concentration at different times and after washing, cells were analyzed by FACS to estimate the intensity of fluorescence into the cells.
The inventors incubated the cells (Jurkat and MCF-7) with the peptides at different concentrations and different times and analyzed the intensity of the fluorescence into the cells by FACS. The result of kinetic of time incubation is shown on FIG. 1 and the kinetic of peptide concentration is shown on FIG. 2.

The subject of data set [3] is MDA-MB231 cells. In words: Apoptosis by Annexin V-FITC staining, shuttles associated to TEAD cargo. The data set is classed as cell-based, human. The conditions noted are these: 10 and 25 μM, 4 h or 24 h. The procedure:
MDA-MB231 cells (5×10^4 cells/ml) were cultured in the presence of different concentrations of shuttles or nuclear localization shuttles associated to the cargo TEAD for 4h or 24h (Non-treated, Panel A; Mut3DPT-TEAD, Panel B; NLS18, Panel C; NLS23, Panel D; NLS18 TEAD, Panel E, NLS23 TEAD, Panel F). Apoptosis was estimated by Annexin V-FITC staining. Cells treated with shuttle without cargo or nuclear localisation signal (NLS) were used as control. Standard deviation is shown.
The apoptosis induction of the different shuttles associated to a cargo (TEAD and YAP binding sites) was analyzed by annexinV-FITC staining (e Biosciences). Human breast cancer cell line MDA-MB231 was treated with different concentrations of peptide for 4 h and 24 h. After the treatment, cells were harvested, washed and treated according to the manufacturer protocol. The level of apoptosis was measured by flow cytometry (BD Biosciences, FACS Canto.
We further analyzed whether the weak apoptotic effect of the mut3DPT-TEAD peptide was increased in the new generated tri-functional peptides. Cells were cultured for 4 h or 24 h with 10 and 25 μM of NLS-18 or NLS-23 and apoptosis estimated by Annexin staining (FIG. 16). The association of TEAD interfering peptide to the NLS18 or NLS23 peptides strongly increases the apoptotic effect, compared to the control peptide.

Description for MDA-MB231 cell line: MDA-MB231 cells (6×10^4 cells/ml) were incubated 4 h with two different concentrations of peptide. Toxicity was analyzed by flow cytometry. […] Non treated cells were used as a control.
The peptides were added to MDA-MB231 cell line at 25 and 50 μM and the toxicity was analyzed by FACS upon 4 h of incubation.

As for `N=C(N)NCCC[C@H](NC(=O)[C@H](CCCNC(=N)N)NC(=O)[C@H](CCCNC(=N)N)NC(=O)[C@H](CCCNC(=N)N)NC(=O)[C@H](CCCNC(=N)N)NC(=O)[C@H](CCCNC(=N)N)NC(=O)[C@H](CCCNC(=N)N)NC(=O)[C@@H](N)CCCNC(=N)N)C(=O)O` [Peptide R8, reference compound], in data set [1] (6 h incubation with human serum at 37° C.), the “degradation compared to control Mut3DPT” value is “stronger degradation”. Also, in data set [1] (24 h incubation with human serum), the degradation entry is “extensively degraded”.

KKKKKWKKWKKK (Shuttle peptide Mut7DPT): the toxicity result with MDA-MB231 cell line was “none of the peptides show toxicity”. Besides, the “stability (integrity) compared to control Mut3DPT” value in data set [1] was “very stable”. In the data set on MCF-7, PBMC, the “internalization compared to the control peptide Mut3DPT” value is recorded as “better internalization” and the “internalization, ranking among the new peptides” value is on record as “a better internalization”. Moreover, the nuclear staining result with MDA-MB231 cells [2] is “does not show nuclear staining”. Moreover, the “time to plateau of internalization” value in the data set with MCF-7 cells (50 μM FITC-labelled peptide) amounted to 30 min.

Consider KKWKKWKKWKK (Shuttle peptide Mut5DPT), for which the “stability (integrity) compared to control Mut3DPT” value in data set [1] is recorded as “very stable”. Also, the “internalization compared to the control peptide Mut3DPT” value with MCF-7, PBMC is “better internalization”. For the same molecule, the “kinetic of internalization compared to control peptide Mut3DPT” value with MCF-7 cells is listed as “better internalization”.

As for RRWRRWRRWRR (Shuttle peptide Mut6DPT), the “stability (integrity) compared to control Mut3DPT” value in data set [1] is on record as “very stable”. For the same molecule, in the data set on MCF-7, PBMC, the “internalization compared to the control peptide Mut3DPT” value is listed as “better internalization” and the “internalization, ranking among the new peptides” value is on record as “a better internalization”. The “share of the total fluorescence achieved one minute after incubation” value in the data set with MCF-7 cells (50 μM FITC-labelled peptide, 1 min) is “Around 50%”. Further, the “time to plateau of internalization” value in the data set on MCF-7 cells (50 μM FITC-labelled peptide) was 15 min. Moreover, the “kinetic of internalization compared to control peptide Mut3DPT” value in the data set with MCF-7 cells is on record as “rapidly internalized”.

For the molecule “VKKKKIKAEIKI-RLQLVEFSAFVEPPDAVD (VKKKKIKAEIKIRLQLVEFSAFVEPPDAVD; Mut3DPT-TEAD)”, the apoptotic effect result in the data set on MDA-MB231 cells [3] is on record as “weak”.

VKKWKIKWWIKI (shuttle peptide Mut4DPT): the “stability (integrity) compared to control Mut3DPT” value in data set [1] is recorded as “as stable as the parental peptide”. In addition, the “internalization compared to the control peptide Mut3DPT” value in the data set with MCF-7, PBMC is listed as “better internalization”. For the same molecule, the “kinetic of internalization compared to control peptide Mut3DPT” value in the data set on MCF-7 cells was “better internalization”.
